Consider three compounds from BindingDB's records for doi:10.1021/jm060056p (University of Bologna, 2006).

The nature of this data set: Antiproliferative activity against human MDR1 transfected mouse L5178Y cell line.
By IC50 is commonly meant the concentration at which inhibition is half-maximal. Read a low IC50 as greater potency. As for `COc1ccc(CCN(C)CCN2C(=O)C3C4c5ccccc5C(c5ccccc54)C3C2=O)cc1OC` (stereo not drawn), the IC50 was found to be 4.23 µM.

For `COc1ccc(CCN(C)CCCN2C(=O)C3C4c5ccccc5C(c5ccccc54)C3C2=O)cc1OC` (stereo not drawn), half-maximal inhibition (IC50) was put at 5.72 µM.

In turn, `COc1ccc(CCN(C)CC#CCN2C(=O)C3C4c5ccccc5C(c5ccccc54)C3C2=O)cc1OC` (stereo not drawn) displayed a half-maximal inhibitory concentration (IC50) of 2.55 µM.
